Here are results for twelve molecules from patent US10688196B2, “Cross-linking agents of collagen fibers for the use in the treatment of corneal ectasia” (SOOFT ITALIA SPA, priority 2015, dated 2020).

For data set [1] the following is noted: riboflavin solutions, 40 W fluorescent light, 1350 foot-candles; cited from earlier work.
For a further data set, the system named is bovine cornea. The settings on record: compared to riboflavin in deionized water; cited from earlier work.
The conditions of data set [2]: compared with solubility in water; cited from earlier work.
The nature of data set [3]: Riboflavin titer determination before and after sterilization (stability). The following applies: 1 atm, 121° C. It is filed as physicochemical. An excerpt:
Riboflavin Titer Determination

Data set [4] is described as follows: ROS (superoxide anion) production on 366 nm irradiation, measured by reduction of Nitro Blue Tetrazolium to Formazan Blue (absorbance at 560 nm). The following applies: at different light intensities. As to the method: The rational of the method is based on the fact that some organic molecules, both natural and synthetic, when irradiated with a particular wavelength, activate and, by interacting with oxygen, produce superoxide anion. […] As the amount of produced superoxide anion correlates with the amount of reduced NBT, from the absorption rate of reduced NBT is obtained the amount of ROS, thereby the ROS production can be expressed as function of irradiation time (minutes).
The ROS measurement is performed by a photoactivation chamber which enables to irradiate in controlled conditions the solutions of photoactivator and detector. The controlled parameters are emission specificity, uniform radiance, irradiation intensity, irradiation time.
Riboflavin-5′-(dihydrogen phosphate), monosodium salt, control sample, NBT control sample and reference sample were irradiated at different incident light intensity (99 μW/cm^2, 223 μW/cm^2, 633 μW/cm^2) (366 nm wavelength) in the photoactivation chamber, and absorbance at 560 nm is recorded. During the irradiation the temperature of the solutions was measured. […] Therefore reasonably the effect of temperature is marginal on these absorbance measures.
The two samples were irradiated in the photoactivation chamber by 99 μW/cm^2 incident light, and absorbance at 560 nm was recorded according to the above described procedure. […]

The next data set has as its system cornea. The following applies: UVA irradiation at 370 nm, immediately after irradiation; cited from earlier work.

Regarding `N[C@@H](CCC(=O)N[C@@H](CS)C(=O)NCC(=O)O)C(=O)O` [reduced glutathione], the “stabilizing effect on riboflavin (photodegradation)” value (“stabilizing effect on riboflavin” below) in data set [1] was 26.2%.
For `CSCCC(N)C(=O)O` (racemic) [DL-methionine], the “stabilizing effect on riboflavin” value in data set [1] is 76.3%.
As for ribonucleic acid, in data set [1], the “stabilizing effect on riboflavin” value is listed as 59.3%.
Take `OC[C@H]1O[C@@H]2O[C@H]3[C@H](O)[C@@H](O)[C@@H](O[C@H]4[C@H](O)[C@@H](O)[C@@H](O[C@H]5[C@H](O)[C@@H](O)[C@@H](O[C@H]6[C@H](O)[C@@H](O)[C@@H](O[C@H]7[C@H](O)[C@@H](O)[C@@H](O[C@H]8[C@H](O)[C@@H](O)[C@@H](O[C@H]9[C@H](O)[C@@H](O)[C@@H](O[C@H]1[C@H](O)[C@H]2O)O[C@@H]9CO)O[C@@H]8CO)O[C@@H]7CO)O[C@@H]6CO)O[C@@H]5CO)O[C@@H]4CO)O[C@@H]3CO` [γ-cyclodextrin]: the “effect on riboflavin permeability (bovine cornea)” value (from here on “effect on riboflavin permeability”) with bovine cornea is “no significant improvement in drug permeation”. The “effect on riboflavin aqueous solubility” value in data set [2] is “failed to enhance drug solubility at any significant level”.
On to `NC(N)=S` [thiourea], for which, in data set [1], the “stabilizing effect on riboflavin” value is listed as 88.2%.
For `O=C([O-])CN(CCN(CC(=O)[O-])CC(=O)O)CC(=O)O.[Na+].[Na+]` [disodium ethylenediamine (EDTA)], in data set [1], the “stabilizing effect on riboflavin” value is given as 96.2%.
`OC[C@H]1O[C@@H]2O[C@H]3[C@H](O)[C@@H](O)[C@@H](O[C@H]4[C@H](O)[C@@H](O)[C@@H](O[C@H]5[C@H](O)[C@@H](O)[C@@H](O[C@H]6[C@H](O)[C@@H](O)[C@@H](O[C@H]7[C@H](O)[C@@H](O)[C@@H](O[C@H]1[C@H](O)[C@H]2O)O[C@@H]7CO)O[C@@H]6CO)O[C@@H]5CO)O[C@@H]4CO)O[C@@H]3CO` [α-cyclodextrin]: the “effect on riboflavin permeability” value in the data set on bovine cornea is recorded as “no significant improvement in drug permeation”. Besides, in data set [2], the “effect on riboflavin aqueous solubility” value is reported as “increased riboflavin solubility”.
On to 2-Hydroxypropyl-β-cyclodextrin, for which the “effect on riboflavin permeability” value with bovine cornea is on record as “no significant improvement in drug permeation”. Besides, in data set [2], the “effect on riboflavin aqueous solubility” value is “failed to enhance drug solubility at any significant level”.
Consider `Cc1cc2nc3c(=O)[nH]c(=O)nc-3n(C[C@H](O)[C@H](O)[C@H](O)COP(=O)([O-])O)c2cc1C.[Na+]` [Riboflavin phosphate, Riboflavin-5-Phosphate Sodium], for which the “Riboflavin % by weight” value in data set [3] (in presence of EDTA H4 (0.1% p/p), Tris (0.05% p/p) and phosphate buffer, sterilization 20 min) was 67.0 % by weight; in data set [3] (in presence of EDTA H4 (0.1% p/p), Tris (0.05% p/p) and phosphate buffer, sterilization 30 min), 60.0 % by weight; in data set [3] (in presence of EDTA H4 (0.1% p/p), Tris (0.05% p/p) and phosphate buffer, sterilization 45 min) it was 50.0 % by weight; in data set [3] (in presence of borate buffer, sterilization 20 min) it was 68.0 % by weight; in data set [3] (in presence of distilled water, sterilization 20 min), 95.0 % by weight; in data set [3] (in presence of distilled water, sterilization 30 min), 92.0 % by weight. For the same molecule, the “Riboflavin % by weight” value in data set [3] (in presence of distilled water, sterilization 45 min) is 90.0 % by weight; in data set [3] (in presence of phosphate buffer, sterilization 20 min) it was 65.0 % by weight; in data set [3] (in presence of phosphate buffer, sterilization 30 min), 40.0 % by weight; in data set [3] (in presence of phosphate buffer, sterilization 45 min) it was 39.0 % by weight. In data set [4], the “change of the absorption on irradiation” value is “no appreciable change of the absorption”. In addition, the “increase of the biomechanical rigidity of the cornea” value with cornea is given as “about 300%”.
Regarding `COC(=O)c1ccc(O)cc1` [methylparaben], the “stabilizing effect on riboflavin” value in data set [1] is reported as 86.4%.
For `O=S([O-])([O-])=S.[Na+].[Na+]` [sodium thiosulfate], in data set [1], the “stabilizing effect on riboflavin” value was 72.9%.
In the case of `OC[C@H]1O[C@@H]2O[C@H]3[C@H](O)[C@@H](O)[C@@H](O[C@H]4[C@H](O)[C@@H](O)[C@@H](O[C@H]5[C@H](O)[C@@H](O)[C@@H](O[C@H]6[C@H](O)[C@@H](O)[C@@H](O[C@H]7[C@H](O)[C@@H](O)[C@@H](O[C@H]8[C@H](O)[C@@H](O)[C@@H](O[C@H]1[C@H](O)[C@H]2O)O[C@@H]8CO)O[C@@H]7CO)O[C@@H]6CO)O[C@@H]5CO)O[C@@H]4CO)O[C@@H]3CO` [β-cyclodextrin], the “effect on riboflavin permeability” value in the data set on bovine cornea is recorded as “enhances riboflavin permeability”. Moreover, the “effect on riboflavin aqueous solubility” value in data set [2] was “increased riboflavin solubility”.
